Experimental data published in patent US11980616B2, “Treating liver disease by selectively eliminating senescent cells” (Buck Institute for Research on Aging, priority 2014, dated 2024).

Key:
[1] = test system: non-senescent HCA2 foreskin fibroblast cells; test: CellTiter-Glo cell viability assay, non-senescent HCA2; assay type: cell-based; settings: 72 h; non-senescent HCA2, 3 days
Method: (§1) To determine whether ABT-263 is selectively toxic to senescent cells compared to non-senescent cells, a cell viability assay was used to assess cell survival following treatment with ABT-263. IMR90 cells (human primary lung fibroblasts (IMR90) (IMR-90 (ATCC® CCL-186™, Manassas, Virginia) were seeded in six well plates, and cells were induced to senescence with 10 Gy of ionizing radiation (IR) (Day 0). The media was refreshed every 3 days. The senescent phenotype is allowed to develop for 7 days at which point a cell count was made to determine the baseline number of cells followed by seeding into 96-well plates. On day 8, the senescent cells (irradiated) and the non-senescent cells (the non-radiated cells), were exposed to serial dilutions of ABT-263 for a period of 3 days. ABT-263 concentrations ranged from 0.5 nM to 3 μM. Each condition was seeded in triplicate.
(§2) After three days of treatment (Day 11), cells were assayed for cell survival using the commercially available CellTiter-Glo® (CTG) Luminescent Cell Viability Assay (Promega Corporation, Madison, Wisconsin). The assay determines the number of viable cells in culture based on the quantitation of ATP present which is an indicator of metabolically active cells.
(§3) The methods of Example 7 were repeated in other cell strains. […]

[2] = test system: senescent HCA2 foreskin fibroblast cells; test: CellTiter-Glo cell viability assay, senescent HCA2; assay type: cell-based; settings: 72 h; senescent HCA2, 3 days
Method: as §1, §2, §3

[3] = test system: senescent IMR90 cells (IMR90 Sen(IR)); test: Pan-caspase inhibitor (Q-VD-OPh) apoptosis assay in IMR90 cells; assay type: cell-based, human
Method: Lung fibroblast cell line IMR90 (human primary lung fibroblasts, ATCC® CCL-186™, Manassas, Virginia) were seeded in six-well plates and induced to senesce with 10 Gy of ionizing radiation (IR) as described in Example 12. After senescence was established, cells were re-seeded into 96 well plates. […] At the end of the assay time period, cells were counted. Each condition was seeded in three plate wells and counted independently. […] Cell survival was determined using the commercially available CellTiter-Glo® Luminescent Cell Viability Assay (Promega Corporation, Madison, Wisconsin). The assay determines the number of viable cells in culture based on the quantitation of ATP present which is an indicator of metabolically active cells.

[4] = test system: non-senescent Primary Renal Cortical Cells; test: CellTiter-Glo cell viability assay, non-senescent renal epithelial cells; assay type: cell-based; settings: 72 h, 3 days
Method: as §1, §2, §3

[5] = test system: senescent Primary Renal Cortical Cells; test: CellTiter-Glo cell viability assay, senescent renal epithelial cells; assay type: cell-based; settings: 72 h, 3 days
Method: as §1, §2, §3

[6] = test system: 3MR or INK-ATTAC mice exposed to cigarette smoke; test: Chronic cigarette smoke exposure model (COPD); assay type: in vivo, mouse; settings: after 2 months of cigarette smoke exposure; vs untreated controls
Method: In a second animal model for pulmonary diseases (e.g., COPD), mice were exposed to cigarette smoke. The effect of a senolytic agent on the mice exposed to smoke is assessed by senescent cell clearance, lung function, and histopathology.
Six week-old 3MR (n=35) or INK-ATTAC (n=35) mice were chronically exposed to cigarette smoke generated from a Teague TE-10 system, an automatically-controlled cigarette smoking machine that produces a combination of side-stream and mainstream cigarette smoke in a chamber, which is transported to a collecting and mixing chamber where varying amounts of air is mixed with the smoke mixture. The COPD protocol was adapted from the COPD core facility at Johns Hopkins University (at Internet site web.jhu.edu/Biswal/exposure_core/copd.html#Cigarette_Smoke) (Rangasamy et al., 2004, J. Clin. Invest. 114:1248-1259; Yao et al., 2012, J. Clin. Invest. 122:2032-2045). Mice received a total of 6 hours of cigarette smoke exposure per day, 5 days a week for 6 months. Each lighted cigarette (3R4F research cigarettes containing 10.9 mg of total particulate matter (TPM), 9.4 mg of tar, and 0.726 mg of nicotine, and 11.9 mg carbon monoxide per cigarette [University of Kentucky, Lexington, KY]) was puffed for 2 seconds and once every minute for a total of 8 puffs, with the flow rate of 1.05 L/min, to provide a standard puff of 35 cm^3. The smoke machine was adjusted to produce a mixture of side stream smoke (89%) and mainstream smoke (11%) by smoldering 2 cigarettes at one time. The smoke chamber atmosphere was monitored for total suspended particulates (80-120 mg/m^3) and carbon monoxide (350 ppm). Beginning at day 7, (10) INK-ATTAC and (10) 3MR mice were treated with AP20187 (3× per week) or gancyclovir (5 consecutive days of treatment followed by 16 days off drug, repeated until the end of the experiment), respectively. An equal number of mice received the corresponding vehicle. The remaining […] (15 INK-ATTAC and 15 3MR) were evenly split with 5 of each genetically modified strain placed into three different treatment groups. One group (n=10) received Nutlin-3A (25 mg/kg dissolved in 10% DMSO/3% Tween-20 in PBS, treated 14 days consecutively followed by 14 days off drug, repeated until the end of the experiment). […]
After two months of cigarette smoke exposure, lung function was assessed by monitoring oxygen saturation using the MouseSTAT PhysioSuite pulse oximeter (Kent Scientific). […] Mice were monitored for 30 seconds and the average peripheral capillary oxygen saturation (SpO2) measurement over this duration was calculated.

[7] = test system: senescent IMR90 cells (Sen(IR) IMR90); test: Cell counting assay, senescent IMR90; assay type: cell-based, human; settings: 3 μM, 24 hour exposure
Method: (§4) To determine whether ABT-263 is selectively toxic to senescent cells compared to non-senescent cells, a cell counting assay was used to determine cell survival following treatment with ABT-263. […] Each condition was seeded in three wells and counted independently. Cells were counted after a 24 hour exposure to ABT-263 (or control culture).

[8] = test system: non-senescent IMR90 cells; test: Cell counting assay, non-senescent IMR90; assay type: cell-based, human; settings: 3 μM, 24 hour exposure
Method: as §4

[9] = test system: non-senescent IMR90 cells; test: CellTiter-Glo cell viability assay, non-senescent IMR90; assay type: cell-based; settings: Homo sapiens, IMR-90, 72 h; non-senescent IMR90, 3 days
Method: as §1, §2
The experiments performed for assessing the effect of these other Bcl-2 inhibitors were performed essentially as described in Example 7. […]

[10] = test system: p16-3MR mice treated with paclitaxel; test: Voluntary exercise (wheel counts) after paclitaxel in p16-3MR mice; assay type: in vivo, mouse; settings: ABT-263 100 mg/kg i.p. daily 7 days; ganciclovir 25 mg/kg i.p. daily 3 days
Method: The capability of a senolytic agent, such as ABT-263, to reduce chemotherapy related side effects, such as fatigue, was examined in p16-3MR transgenic mice. In addition to doxorubicin, paclitaxel also induces cellular senescence when administered to animals. See Example 2 for a description of the p16-3MR transgenic mouse model.
In this experiment, paclitaxel was administered to groups of p16-3mr mice (n=4) three times, every two days. Two days after the third dose of paclitaxel, ganciclovir was administered daily for three days (days 1, 2, and 3) intraperitoneally at 25 mg/kg. ABT-263 (100 mg/kg) was administered intraperitoneally daily for seven days after paclitaxel administration. Two days after the last dose of ABT-263, all groups of animals were housed in metabolic cages (promethion, sable systems international, Las Vegas, NV) to monitor voluntary exercise as determined by wheel counts. Data were collected and analyzed two days later. Clearance of senescent cells by ABT-263 and ganciclovir restored approximately 70% of wheel count reduction caused by chemotherapy treatment.

senescent IMR90 cells = test: CellTiter-Glo cell viability assay, senescent IMR90; assay type: cell-based, human
Method: as §1, §2
The experiments performed for assessing the effect of these other Bcl-2 inhibitors were performed essentially as described in Example 7. Cells were exposed to ABT-199 at serial dilution concentrations ranging from 15 nM to 100 μM (FIGS. 26 and 27). Cells were exposed to Obatoclax at concentrations ranging from 1.4 nM to 9 μM (FIG. 28).
IMR90 cells were induced to senescence by irradiation as described in Example 7. The irradiated IMR90 cells and non-senescent IMR90 cells were then exposed to a compound called ML214 that is a Bcl-2A1 specific inhibitor.
The effect of ABT-263 in combination with the Akt inhibitor MK-2206 was tested for selective toxicity of senescent cells compared to non-senescent cells in IMR90 cells. The methods of Example 7 were repeated except that cell cultures were exposed to 10 nM MK-2206 (Selleckem, Cat #S1078) in addition to serial dilutions of ABT-263.

`CC1(C)CCC(c2ccc(Cl)cc2)=C(CN2CCN(c3ccc(C(=O)NS(=O)(=O)c4ccc(N[C@H](CCN5CCOCC5)CSc5ccccc5)c(S(=O)(=O)C(F)(F)F)c4)cc3)CC2)C1` [ABT-263, 4-[4-[[2-(4-chlorophenyl)-5,5-dimethylcyclohexen-1-yl]methyl]piperazin-1-yl]-N-[4-[[(2R)-4-morpholin-4-yl-1-phenylsulfanylbutan-2-yl]amino]-3-(trifluoromethylsulfonyl)phenyl]sulfonylbenzamide] was tested, and the IC50 [1] was greater than 3 µM, the IC50 [2] was 0.41 µM and the “Percent of surviving senescent cells in the presence of the pan-caspase inhibitor” value ([3]; 0.33 or 1 μM, 3 days, Q-VD-OPh 20 μM) was “increased”. For the same compound, the “Selective killing of senescent cells” value ([3]; IMR90, 3 days) was “selectively kills senescent cells”, the IC50 [4] was 0.43 µM and the IC50 [5] was 0.025 µM. The SpO2 levels [6] was “statistically significant increases”, the “Cell counts relative to counts before treatment” value [7] was 28% and the “Percentage of survival of cells after 24 hours” value [8] was “absence of toxicity”. For the same compound, the IC50 [9] was 2.4 µM, the “Restoration of wheel count reduction caused by chemotherapy” value [10] was “approximately 70%” and the IC50 (senescent IMR90 cells; Homo sapiens, IMR-90, 72 h, senescent IMR90, 3 days) was 0.14 µM. The “In vitro theoretical therapeutic index” value (senescent IMR90 cells; IMR90, non-senescent vs senescent IC50) was 17.
